Test results: patent publication US20220249525A1, “Fatty Acid Compounds for Prevention and Treatment of Neurodegenerative Disorders” (T OMEGA AS, priority 2019, published 2022)
Blank lines part the entries; values can stand above or below the molecule they belong to.

Tests used:
SH-SY5Y cells = experiment: GC-MS analysis of TTA in cell medium and SH-SY5Y cells; type: in vitro ADME
Protocol: The GC-MS analysis was performed on treated SH-SY5Y cells and its medium prior and after treatment of TTA complexed with FBS. The technical work and analysis were performed by Pavol Bohov.
Total medium and cellular FA composition were analyzed by […] after preparation of FA methyl esters from total lipids by heating with a 1:1 mixture of methanol and toluene at 90° C. for 1 hour using sulfuric acid as a catalyst. Gas chromatograph Trace GC Ultra (Finnigan, USA) was equipped with a programmable temperature vaporization injector, flame-ionization detector, AS 2000 autosampler and with a fused silica capillary column coated with dimethylpolysiloxane stationary phase (J & W Scientific, USA). Hydrogen was used as a carrier gas. The column temperature was programmed from 110° C. to 310° C. with a gradient of 2.5° C./min.
The GC signal was acquired and evaluated with Chromeleon software version 6.80 (Dionex, USA). Peaks were identified by means of known FA standards and by means of mass spectra, obtained by GC-MS analysis (GCQ MS Detector, Finnigan, USA) on the same column.
The quantification of the FAs was based on the areas of the chromatographic peaks which were measured electronically. Subsequently, the areas were converted to weight units based on the known amount of the internal standard C21:0 which had been added to the sample. The response of the analytical procedure was determined with a mixture of pure standards (Sigma-Aldrich, USA; Supelco, USA; Larodan Fine Chemicals, Sweden).

[1] = test system: HeLaNRF1/c4 reporter cells; experiment: NRF1-regulated mitochondrial biogenesis, GFP reporter by flow cytometry; type: cell-based; conditions: 5 days; AICAR 250 μM or 500 μM, resveratrol 25 uM, test compounds 30 μM and 60 μM
Protocol: The HeLaNRF1/c4 reporter cells were employed to investigate effects of the modified fatty acids on NRF1-regulated mitochondrial biogenesis. The cells (250,000) were seeded in T75 flasks and incubated for 3 hours to allow attachment. The compounds were dissolved in DMSO and diluted in culture medium to provide the final concentration. DMSO at a concentration equivalent to the highest compound concentration was added to control cultures. Resveratrol and AICAR were used as positive controls. Resveratrol has not previously been tested in this reporter model, but we found it relevant to include it for purposes of experimental and mechanistic comparisons. After 3 days of treatment the media was replaced with fresh media containing the corresponding compound. On day 5, the cells were harvested and the cultures split into three fractions: One fraction was used for detection of mitoGFP expression by flow cytometry, to assess effects on NRF-1 regulated mitochondrial biogenesis. Flow cytometry analysis was performed as previously described. Another fraction was used for extraction of RNA and subsequent gene expression analysis using quantitative PCR (see below). The last fraction was employed to investigate effects on mitochondrial respiratory function by extracellular flux analysis (described above). The experiment was replicated three times. […]

[2] = test system: HeLaNRF1/c4 reporter cells; experiment: Mitochondria respiration assay (OCR) in HeLaNRF1/c4 reporter cells after 5 days; type: cell-based
Protocol: Mitochondria function was analyzed by measuring oxygen consumption rate (OCR) by extracellular flux analysis in a Seahorse XFe96 instrument (Agilent Seahorse XF Technologies). The measurements were performed in DADA basic media without phenol red, supplemented with L-glutamine (2 mM), pyruvate (2 mM), and sodium chloride, NaCl (32 mM) (Sigma-Aldrich). Respiratory rates were measured following sequential additions of glucose (10 mM), oligomycin, carbonyl cyanide m-chlorophenyl hydrazine (CCCP) and a mixture of rotenone (1 μM) and antimycin A (1 μM). Before carrying out the measurements for each cell model, optimizations were done for; cell number, CCCP, and oligomycin concentrations. […] The OCR measured initially (before any additions) represented the rate ‘basal respiration.’ The addition of ATP synthase inhibitor oligomycin provided oxygen consumption independent of ATP production (‘leak activity’). Maximal respiration (also referred to as ‘respiratory capacity’) was measured upon addition of the uncoupler CCCP. […] To evaluate the effects of the different treatments, the respiratory rates from compound-treated wells were normalized to protein content, and calculated as percentage of the average respiratory rate of the DMSO-treated control wells. […]

[3] = test system: HeLaNRF1/c4 reporter cells; experiment: Resazurin conversion assay in HeLaNRF1/c4 reporter cells; type: cell-based; conditions: test compounds 30 μM and 60 μM, long treatment
Protocol: (§1) Non-small cell lung cancer cells, HCC827 (ATCC) were cultured in RPMI-1640 Glutamax medium (Sigma-Aldrich St. Louis, Mo., USA), under conventional culture conditions. Media was supplemented with 10% Fetal Bovine Serum (FBS), 1% glutamine and 1% streptomycin/penicillin (Sigma-Aldrich). HeLaNRF1/c4 reporter cells were cultured in Dulbecco's Modified Eagle's Medium (DMEM) supplemented with 10% FBS, 2 mM L-Glutamine, 100 u/ml penicillin/streptomycin (Sigma-Aldrich,). Incubation was done at 37° C. in 5% CO2.
Cell viability/proliferation was determined by the resazurin conversion assay. A total of 4000 cells were seeded in each of the 96-well plates in 100 μl of medium. After 3 hours of incubation, 100 μl of fresh medium with respective concentration of the desired compound or controls were added. Resazurin solution (Sigma-Aldrich) was added (10%, v/v in PBS) after 1 or 3 day treatment, followed by 3 hour incubation at 37° C. and 5% CO2. Resazurin fluorescence (excitation, 540 nm; emission, 590 nm) was measured and measurements were corrected for background signals. […] Relative viability was calculated from percent fluorescence relative to DMSO-treated control wells.
In order to investigate if some of the compounds induce metabolic adaptations involving mitochondrial biogenesis, we employed the HeLaNRF1/c4 reporter cells in which activation of the transcription factor NRF1 triggers expression of GFP. Since adaptations of mitochondrial biogenesis are known to require some days to develop, we used a relatively low dosage (30 μM and 60 μM) of the compounds, to allow longer treatment period compared to the previous short term experiments.

[4] = test system: HeLaNRF1/c4 reporter cells; experiment: Gene expression (qPCR) in HeLaNRF1/c4 reporter cells; type: cell-based; conditions: long-term treatment, vs control
Protocol: The HeLaNRF1/c4 reporter cells were employed to investigate effects of the modified fatty acids on NRF1-regulated mitochondrial biogenesis. The cells (250,000) were seeded in T75 flasks and incubated for 3 hours to allow attachment. The compounds were dissolved in DMSO and diluted in culture medium to provide the final concentration. DMSO at a concentration equivalent to the highest compound concentration was added to control cultures. Resveratrol and AICAR were used as positive controls. Resveratrol has not previously been tested in this reporter model, but we found it relevant to include it for purposes of experimental and mechanistic comparisons. After 3 days of treatment the media was replaced with fresh media containing the corresponding compound. On day 5, the cells were harvested and the cultures split into three fractions: One fraction was used for detection of mitoGFP expression by flow cytometry, to assess effects on NRF-1 regulated mitochondrial biogenesis. Flow cytometry analysis was performed as previously described. Another fraction was used for extraction of RNA and subsequent gene expression analysis using quantitative PCR (see below). The last fraction was employed to investigate effects on mitochondrial respiratory function by extracellular flux analysis (described above). The experiment was replicated three times.
Total RNA was extracted from harvested cells (RNAeasy kit Qiagen, Hilden, Germany). The RNA content was quantified on Nanodrop 1000 Spectrophotometer (Thermo Scientific). From 1 μg total RNA, cDNA was synthesized using High-Capacity Reverse Transcription Kit (Applied Biosystems, Carlsbad, Calif., US). Gene quantification was done using TaqMan probes for gene expression assays (Applied Biosystems). Probes used were: PGC1α (PPARG coactivator 1α), Hs00173304_m1; HIF1α (hypoxia inducible factor 1α), Hs00153153_m1; PDK1 (pyruvate dehydrogenase kinase 1), Hs01561847_m1; PDK4, (pyruvate dehydrogenase kinase 4), Hs01037712_m1; SIRT4 (sirtuin 4) Hs01015516_g1; ACOX1 (acyl-CoA oxidase 1) Hs01074241_m1; as reference genes, we used; Eukaryotic 18S rRNA Hs99999901_s1; actin beta Hs99999903_m1. Fold change was calculated as geometric mean of ΔΔCt of the two reference genes.

HCC827 cells = experiment: Mitochondria respiration assay (OCR, extracellular flux) in HCC827 cells; type: cell-based; conditions: compared to control
Protocol: as §1
Mitochondria function was analyzed by measuring oxygen consumption rate (OCR) by extracellular flux analysis in a Seahorse XFe96 instrument (Agilent Seahorse XF Technologies). The measurements were performed in DADA basic media without phenol red, supplemented with L-glutamine (2 mM), pyruvate (2 mM), and sodium chloride, NaCl (32 mM) (Sigma-Aldrich). Respiratory rates were measured following sequential additions of glucose (10 mM), oligomycin, carbonyl cyanide m-chlorophenyl hydrazine (CCCP) and a mixture of rotenone (1 μM) and antimycin A (1 μM). Before carrying out the measurements for each cell model, optimizations were done for; cell number, CCCP, and oligomycin concentrations. For the HCC 827 cell model optimal conditions were; 30,000 cells/well, 0.5 μM CCCP, and 3 μM Oligomycin; and in HeLaNRF1/c4 reporter cell model; 20,000 cells/well, 1 μM CCCP and 3 μM Oligomycin. The OCR measured initially (before any additions) represented the rate ‘basal respiration.’ The addition of ATP synthase inhibitor oligomycin provided oxygen consumption independent of ATP production (‘leak activity’). Maximal respiration (also referred to as ‘respiratory capacity’) was measured upon addition of the uncoupler CCCP. […] After the extracellular flux analysis the analysis plates were washed with Phosphate Buffered Saline (PBS) and frozen at −80° C. The BCA assay (Pierce BCA protein assay kit, Thermo Fisher Scientific, Waltham, Mass. USA) was employed to measure the protein content in the wells. To evaluate the effects of the different treatments, the respiratory rates from compound-treated wells were normalized to protein content, and calculated as percentage of the average respiratory rate of the DMSO-treated control wells. All treatments were performed with 6-8 replicate wells.

[5] = Mildronate-induced fatty liver, liver triacylglycerol; type: in vivo; conditions: C57BL/6 mice; Mildronate 550 mg/kg body weight in low-fat diet; 3 weeks
Protocol: C57BL/6 mice were divided in 4 groups of 10 mice and fed a control low-fat diet, low-fat diets with TTA (720 mg/kg body weight), Mildronate (550 mg/kg body weight) or a combination of these two treatments for 3 weeks (n=10). At sacrifice, liver samples were collected, lipids were extracted, and triacylglycerol (TAG) measured on the Hitachi 917 system (Roche Diagnostics, GmbH, Mannheim, Germany) using a kit from Roche Diagnostics.

[6] = inside SH-SY5Y cells after 24 hours

Medium 24 h, weight percent of total FA (SH-SY5Y cells; cell medium after 24 hours): (0.18%)
Medium 24 h, concentration (SH-SY5Y cells; cell medium after 24 hours incubation with SH-SY5Y cells): 0.53 µM
Cells 24 h, concentration (SH-SY5Y cells; [6]): 0.017 µM
Cells 24 h, weight percent of total FA (SH-SY5Y cells; [6]): (0.19%)
SMILES: CCCCCCCC=CCCCCCSCC(=O)O [TTA: 1n-8]

SMILES: NC(=O)c1ncn([C@@H]2O[C@H](CO)[C@@H](O)[C@H]2O)c1N [AICAR, 5-aminoimidazole-4-carboxamide-1-β-D-ribofuranoside, reference compound]
GFP intensity (NRF1 reporter) [1]: significant increase
basal respiratory rate [2]: without affecting the basal respiratory rate
uncoupled respiratory capacity (CCCP) [2]: only increased in the AICAR-treated cells
resazurin conversion [3]: moderate reduction
PGC1α expression [4]: reduced PGC1α expression
basal respiratory rate (OCR) (HCC827 cells): little or no effect

increase in liver triacylglycerol (TAG) [5]: 7 fold
SMILES: C[N+](C)(C)NCCC(=O)[O-] [Mildronate, 3-(2,2,2-trimethylhydrazinium)propionate]
